In US20230295131A1, “INHIBITORS OF RHO-ASSOCIATED COILED-COIL KINASE” (Angion Biomedica Corp., priority 2020, published 2023):

Tests used:
ROCK2 = molecular target: T1, ROCK2 (Homo sapiens, UniProt O75116); experiment: ROCK2 kinase binding affinity, DiscoverX KINOMEscan KdELECT
T1 construct: T7 phage fusion (kinase-tagged phage) or DNA tag for qPCR detection
Outline: (§1)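 Competition binding of DNA- or phage-tagged kinase to immobilised ligand beads, with bound kinase quantified by qPCR of eluates.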

[1] = test system: miRNAs in hepatic homogenates; experiment: miRNA quantification in liver homogenates of the NASH model; assay type: in vivo, mice
Method: (§2) 2. Pharmacodynamic and Efficacy Profile in Hepatic Diseases: • The activity of Ex. 65 was evaluated in a model of fast-food diet (FFD)+CCl4+sugar-induced NASH. Adult male mice were randomized to vehicle of 30 mg/kg test compound, IP, twice-daily for two weeks. Treatment with Ex. 65 reduced hepatic lipid accumulation (FIG. 3) and NAFLD activity score (NAS; FIG. 4).
MicroRNAs (miRNAs) from liver homogenates from the study described above were quantified. Compared to healthy livers, 65 differentially expressed miRNAs from NASH livers were identified, of which 22 were corrected by treatment with Ex. 65 (see Table 6).

ROCK1 = molecular target: T2, ROCK1 (Homo sapiens, UniProt Q13464); experiment: ROCK1 kinase binding affinity, DiscoverX KINOMEscan KdELECT; details: 11-point 3-fold dilution
T2 construct: T7 phage fusion (kinase-tagged phage) or DNA tag for qPCR detection
Outline: as §1

[2] = Pharmacokinetic profile, compound levels in the portal vein; assay type: in vivo, C57BL/6 Mouse
Method: For assessing compound levels in the portal vein, 7-8 week old male C57BL/6 animals were dosed orally with 10 mg/kg compound of Ex. 65 (mesylate salt) in 0.5% carboxymethyl cellulose (CMC) in water. Serum samples were collected from the portal vein at 15, 30, 60 120 and 240 minutes after dosing. Samples were analyzed for compound by LC-MS.

Hepatic stellate cells = experiment: Gel contraction assay (TGFβ1-induced); assay type: cell-based; details: test compound at 100 μM, 1 hour pretreatment, TGFβ1 24 hours
Method: Hepatic stellate cells were plated onto collagen coated plates and pretreated with test compound (at 100 μM) for 1 hour. TGFβ1 is then added for 24 hours, and images are taken.

[3] = Pharmacokinetic profile, compound levels in the vena cava; assay type: in vivo, C57BL/6 Mouse; details: po 10 mg/kg in 0.5% CMC suspension
Method: For assessing compound levels in the vena cava, 10-11 week old male C57BL/6 animals were dosed orally with 10 mg/kg of Ex. 65 (mesylate salt) in 0.5% carboxymethyl cellulose (CMC) in water. Serum samples were collected from the portal vein at 15, 30, 60 120, 240, 360 and 480 minutes after dosing. Samples were analyzed for compound concentration by LC-MS.

[4] = test system: fast-food diet (FFD)+CCl4+sugar-induced NASH; experiment: Fast-food diet (FFD)+CCl4+sugar-induced NASH model; assay type: in vivo, mice; details: 30 mg/kg, IP, twice-daily for two weeks; for hepatic lipid accumulation (liver steatosis): FIG. 3; for NAFLD activity score (NAS): FIG. 4
Method: as §2

[5] = test system: CTGF in mouse embryonic fibroblasts (MEFs); experiment: TGFβ1-induced CTGF production assay; assay type: cell-based; details: 1 hour pretreatment before TGFβ1, real time PCR
Method: Mouse embryonic fibroblasts (MEFs) were isolated, starved overnight, then pretreated with Ex. 65 or Ex. 93 for 1 hour prior to addition of TGFβ1. RNA was isolated from cells and real time PCR was performed for CTGF.

[6] = 30 mg/kg IP twice-daily two weeks
[7] = male, C57BL/6, mouse, portal vein serum, po 10 mg/kg in 0.5% CMC suspension, mesylate salt, serum
[8] = male, C57BL/6, mouse, vena cava serum, mesylate salt, serum

T1 sequence (O75116 whole entry, the tested form may be a part): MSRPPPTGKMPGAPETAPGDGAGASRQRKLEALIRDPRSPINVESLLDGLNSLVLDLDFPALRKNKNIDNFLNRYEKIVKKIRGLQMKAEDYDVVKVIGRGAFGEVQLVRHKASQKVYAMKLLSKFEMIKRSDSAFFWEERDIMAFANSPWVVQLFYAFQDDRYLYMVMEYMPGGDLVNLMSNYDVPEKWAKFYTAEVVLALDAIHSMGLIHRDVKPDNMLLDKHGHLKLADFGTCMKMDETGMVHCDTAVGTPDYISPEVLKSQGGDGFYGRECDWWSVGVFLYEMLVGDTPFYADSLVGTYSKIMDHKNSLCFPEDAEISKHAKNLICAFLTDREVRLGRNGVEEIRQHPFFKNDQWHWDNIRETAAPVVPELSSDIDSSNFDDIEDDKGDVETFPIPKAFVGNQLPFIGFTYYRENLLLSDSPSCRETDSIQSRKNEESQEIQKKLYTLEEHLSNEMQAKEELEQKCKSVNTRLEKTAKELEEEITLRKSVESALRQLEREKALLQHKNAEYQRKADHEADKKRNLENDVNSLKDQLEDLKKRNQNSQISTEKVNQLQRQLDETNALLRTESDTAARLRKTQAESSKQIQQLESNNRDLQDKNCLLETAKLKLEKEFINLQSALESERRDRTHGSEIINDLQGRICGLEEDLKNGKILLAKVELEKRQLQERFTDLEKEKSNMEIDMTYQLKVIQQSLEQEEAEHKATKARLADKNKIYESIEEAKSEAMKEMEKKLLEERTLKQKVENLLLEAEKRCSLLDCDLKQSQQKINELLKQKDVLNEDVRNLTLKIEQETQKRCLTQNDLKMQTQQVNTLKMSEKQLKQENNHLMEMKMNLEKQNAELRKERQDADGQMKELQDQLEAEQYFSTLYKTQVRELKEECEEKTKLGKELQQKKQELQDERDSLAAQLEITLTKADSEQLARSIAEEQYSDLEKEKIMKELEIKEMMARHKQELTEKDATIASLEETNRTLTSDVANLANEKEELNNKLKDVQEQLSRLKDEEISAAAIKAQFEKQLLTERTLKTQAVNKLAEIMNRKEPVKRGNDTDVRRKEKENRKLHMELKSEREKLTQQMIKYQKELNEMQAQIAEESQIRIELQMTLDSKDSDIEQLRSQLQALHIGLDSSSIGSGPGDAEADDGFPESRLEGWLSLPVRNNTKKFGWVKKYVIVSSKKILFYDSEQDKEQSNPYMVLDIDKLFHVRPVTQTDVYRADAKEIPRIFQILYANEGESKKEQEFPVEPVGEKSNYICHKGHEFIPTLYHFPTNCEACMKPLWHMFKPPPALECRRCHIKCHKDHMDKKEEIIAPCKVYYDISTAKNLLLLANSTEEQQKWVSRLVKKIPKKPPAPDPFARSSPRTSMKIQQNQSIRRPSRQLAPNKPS
T2 sequence (Q13464 whole entry, the tested form may be a part): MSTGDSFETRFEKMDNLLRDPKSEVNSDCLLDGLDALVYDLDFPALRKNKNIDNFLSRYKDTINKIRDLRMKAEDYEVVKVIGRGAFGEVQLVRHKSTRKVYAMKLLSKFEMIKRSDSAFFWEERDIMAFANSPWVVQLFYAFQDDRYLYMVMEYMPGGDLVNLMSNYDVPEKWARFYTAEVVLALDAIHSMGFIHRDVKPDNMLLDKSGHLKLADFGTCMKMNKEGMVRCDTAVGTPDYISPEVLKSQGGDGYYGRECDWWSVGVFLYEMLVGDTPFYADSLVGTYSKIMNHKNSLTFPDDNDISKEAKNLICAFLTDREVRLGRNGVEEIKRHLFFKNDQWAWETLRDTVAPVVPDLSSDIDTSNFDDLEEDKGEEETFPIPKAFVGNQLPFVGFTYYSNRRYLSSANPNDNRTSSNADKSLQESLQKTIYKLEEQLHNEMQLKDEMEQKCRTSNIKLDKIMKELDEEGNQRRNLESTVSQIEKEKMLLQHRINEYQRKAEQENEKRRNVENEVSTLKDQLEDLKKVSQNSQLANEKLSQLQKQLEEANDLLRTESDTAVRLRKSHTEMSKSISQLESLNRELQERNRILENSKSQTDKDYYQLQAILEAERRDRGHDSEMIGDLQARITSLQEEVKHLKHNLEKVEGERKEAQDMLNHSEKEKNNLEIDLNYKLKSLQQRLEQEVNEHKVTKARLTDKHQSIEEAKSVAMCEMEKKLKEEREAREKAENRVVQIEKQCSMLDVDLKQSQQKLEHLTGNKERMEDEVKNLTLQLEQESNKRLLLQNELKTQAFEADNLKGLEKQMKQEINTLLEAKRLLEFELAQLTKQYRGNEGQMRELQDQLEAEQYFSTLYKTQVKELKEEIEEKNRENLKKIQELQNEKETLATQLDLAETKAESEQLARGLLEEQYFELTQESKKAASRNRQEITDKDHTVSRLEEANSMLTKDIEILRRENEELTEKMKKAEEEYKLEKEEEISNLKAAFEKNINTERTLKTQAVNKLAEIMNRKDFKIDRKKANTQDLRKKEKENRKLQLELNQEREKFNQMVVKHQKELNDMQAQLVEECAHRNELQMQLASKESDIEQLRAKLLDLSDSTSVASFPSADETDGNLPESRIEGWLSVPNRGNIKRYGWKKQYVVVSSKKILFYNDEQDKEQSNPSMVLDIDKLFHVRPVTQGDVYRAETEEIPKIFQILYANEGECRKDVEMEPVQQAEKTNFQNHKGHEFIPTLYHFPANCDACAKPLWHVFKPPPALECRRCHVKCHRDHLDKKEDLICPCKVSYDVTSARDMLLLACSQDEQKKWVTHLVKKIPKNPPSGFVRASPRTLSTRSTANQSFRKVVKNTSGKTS

With `O[C@H]1CC[C@@H](Nc2nccc(-c3nccc(C#Cc4ccc5[nH]ncc5c4)n3)n2)CC1` [Ex. 65, (1s,4s)-4-((4-((1H-Indazol-5-yl)ethynyl)-[2,4′-bipyrimidin]-2′-yl)amino)cyclohexanol] the Kd (ROCK2; KINOMEscan KdELECT, 11-point 3-fold dilution, read-out: Kd (μM) ROCK2) was less than 0.01 µM, the “ROCK2 Selectivity” value (ROCK2; selectivity for ROCK2 over ROCK1 from Kd) was “**** (>500-fold selectivity for ROCK2)” and the “hepatic levels of oncomiR-181a” value [1, 6] was “reduced”. The “hepatic levels of oncomiR-425” value [1, 6] was “reduced”, the “Mean (disease + Ex. 65) mmu-miR-5123” value ([1]; hepatic homogenates, mean control 3.22, disease 1.53) was 3.54 and the “Mean (disease + Ex. 65) mmu-miR-871-3p” value ([1]; hepatic homogenates, mean control 4.08, disease 1.53) was 7.98. For the same molecule, the “Mean (disease + Ex. 65) mmu-miR-7115-5p” value ([1]; hepatic homogenates, mean control 4.31, disease 8.54) was 2.41, the “Mean (disease + Ex. 65) mmu-let-7k” value ([1]; hepatic homogenates, mean control 9.04, disease 13.85) was 7.72 and the “Mean (disease + Ex. 65) mmu-miR-93-3p” value ([1]; hepatic homogenates, mean control 39.45, disease 76.50) was 46.52. For the same molecule, the “Mean (disease + Ex. 65) mmu-miR-542-5p” value ([1]; hepatic homogenates, mean control 66.04, disease 74.42) was 39.03, the “Mean (disease + Ex. 65) mmu-miR-27a-5p” value ([1]; hepatic homogenates, mean control 71.79, disease 98.65) was 53.13 and the “Mean (disease + Ex. 65) mmu-miR-106a-5p” value ([1]; hepatic homogenates, mean control 115.29, disease 149.51) was 114.11. For the same molecule, the “Mean (disease + Ex. 65) mmu-miR-125a-3p” value ([1]; hepatic homogenates, mean control 245.12, disease 297.02) was 182.06, the “Mean (disease + Ex. 65) mmu-miR-501-3p” value ([1]; hepatic homogenates, mean control 364.92, disease 489.94) was 296.78 and the “Mean (disease + Ex. 65) mmu-miR-339-3p” value ([1]; hepatic homogenates, mean control 427.46, disease 502.07) was 426.25. The “Mean (disease + Ex. 65) mmu-miR-802-5p” value ([1]; hepatic homogenates, mean control 1094.11, disease 614.54) was 899.47, the “Mean (disease + Ex. 65) mmu-miR-322-3p” value ([1]; hepatic homogenates, mean control 1115.59, disease 1416.47) was 949.59 and the “Mean (disease + Ex. 65) mmu-miR-17-3p” value ([1]; hepatic homogenates, mean control 1200.81, disease 1454.34) was 1161.55. The “Mean (disease + Ex. 65) mmu-miR-351-5p” value ([1]; hepatic homogenates, mean control 1248.83, disease 1603.84) was 889.81, the “Mean (disease + Ex. 65) mmu-miR-99b-5p” value ([1]; hepatic homogenates, mean control 1421.33, disease 1933.41) was 1099.61 and the “Mean (disease + Ex. 65) mmu-miR-425-5p” value ([1]; hepatic homogenates, mean control 1716.15, disease 2037.69) was 1524.04. The “Mean (disease + Ex. 65) mmu-miR-181a-5p” value ([1]; hepatic homogenates, mean control 3789.12, disease 5124.26) was 2941.29, the “Mean (disease + Ex. 65) mmu-miR-320-3p” value ([1]; hepatic homogenates, mean control 4080.44, disease 5204.90) was 3896.99 and the “Mean (disease + Ex. 65) mmu-miR-93-5p” value ([1]; hepatic homogenates, mean control 36188.01, disease 41626.66) was 31184.61. For the same molecule, the “Mean (disease + Ex. 65) mmu-miR-143-3p” value ([1]; hepatic homogenates, mean control 67983.70, disease 80209.00) was 58204.03, the “Mean (disease + Ex. 65) mmu-miR-191-5p” value ([1]; hepatic homogenates, mean control 118228.91, disease 141957.68) was 119365.71 and the “number of differentially expressed miRNAs of NASH livers corrected by treatment” value ([1]; of 65 differentially expressed miRNAs, 30 mg/kg IP twice-daily two weeks) was 22. For the same molecule, the Kd (ROCK1) was 0.1 to 0.99 µM, the AUC [2, 7] was 697 ng·h/mL and the Cmax [2, 7] was 1540 nM. For the same molecule, the “oral bioavailability and liver entry” value ([2]; mice, po, portal vein versus vena cava) was “preferential liver entry”, the “Cmax as multiple of Kd, in portal vein” value ([2]; po 10 mg/kg in 0.5% CMC suspension) was 1904*Kd and the “F % in portal vein” value ([2]; po 10 mg/kg in 0.5% CMC suspension, mesylate salt) was 22%. The “TGFβ1-induced gel contraction in hepatic stellate cells” value (Hepatic stellate cells) was “significantly attenuated”, the AUC [3, 8] was 145 ng·h/mL and the Cmax [3, 8] was 258 nM. For the same molecule, the “Cmax as multiple of Kd, in vena cava” value [3] was 318*Kd, the “F % in vena cava” value ([3]; mesylate salt) was 4.6% and the “hepatic lipid accumulation (liver steatosis)” value [4] was “reduced”. For the same molecule, the “hepatic lipid accumulation (liver steatosis)” value ([4]; listed as compound 65) was “reduction”, the “NAFLD activity score (NAS)” value [4] was “reduced” and the “NAFLD activity score (NAS)” value ([4]; listed as compound 65) was “reduction”. For the same molecule, the “CTGF production in embryonic fibroblasts” value [5] was “attenuated”.
